Test results as given in publication PMC11210663 (Emerging Infectious Diseases, 2024).

System: influenza A(H1N1)pdm09 viruses tested during the 2022–23 influenza season
Format: biochemical, influenza A(H1N1)pdm09 virus
Conditions: read-out: NA inhibitors median IC50 2022–2023 (reference)

CCC(CC)[C@H](NC(C)=O)[C@@H]1[C@H](O)[C@@H](C(=O)O)C[C@H]1N=C(N)N [Peramivir, peramivir]
IC50: 0.07 nM
